Read-outs that look alike come from different tables or passages of the source.
Key:
Assay type in all cases: cell-based
[1] = target: T1, recombinant rat GluN1/GluN2A (Rattus norvegicus, UniProt Q00959); assay: Two-electrode voltage-clamp recordings in Xenopus laevis oocytes, GluN2A; conditions: for GluN2A IC50: oocytes, 100 μM glutamate and 30 μM glycine; for I3 μM/Icontrol (mean ± SEM, %) GluN2A: 3 μM compound with 100 μM glutamate and 30 μM glycine, control set as 1
T1 construct: expressed in transfected cells; host or cells: Xenopus laevis oocytes injected with cRNA (GluN1:GluN2 ratio 1:2)
Method: (§1) All target compounds were evaluated for activity by the Traynelis laboratory at Emory University using two-electrode voltage-clamp recordings performed in Xenopus laevis oocytes expressing recombinant GluN2A-D subunits (Table 1). […] Two ester compounds 997-65 and 997-66 also performed no inhibition at GluN2A to GluN2D receptors. […] Consequently, for the compounds that Acker et al. already published, it was necessary to increase the concentration to 100 μM when collecting data for a concentration effect curve. […] Therefore, under this condition, we can only conclude that compound 997-67 remained potent at GluN2C/D-containing receptors, but its selectivity over GluN2A- and GluN2B-containing receptors could not be compared to 997-57. […] Finally, replacing the carboxylic acid to the bio-isostere amide yielded compounds 997-96 and 997-115, which dropped the potency 2- to 4-fold in comparison to their corresponding acids 997-74 and 997-114.
(§2) Two-electrode voltage-clamp recordings were performed in Xenopus laevis oocytes that were injected with mRNA to express recombinant rat GluN1/GluN2A, GluN1/GluN2B, GluN1/GluN2C, and GluN1/GluN2D. The recordings using unfertilized oocytes from Xenopus laevis were permitted by Emory University Institutional Animal Care and Use Committee (IACUC). An automatic injector (Nanoject II, Drummond Scientific) was used for cRNA injection using the pipettes filled with mineral oil. The cRNA that transcribed in vitro via the mMessage Machine kit (Ambion) was diluted with nuclease-free water, and then injected at GluN1/GluN2 with a ratio of 1:2. The oocytes were stored in Barth's solution that contained 88 mM NaCl, 5.0 mM Tris-HCl, 2.4 mM NaHCO3, 1.0 mM KCl, 0.84 mM MgSO4, 0.41 mM CaCl2, 0.33 mM Ca(NO3)2, 0.1 mg/ml gentamycin sulfate, 1.0 U/ml penicillin, and 1 μg/ml streptomycin at a pH of 7.4 and temperatures of 15-17° C. for two to five days before the two-electrode voltage-clamp recordings. When recording, the oocytes were placed in a perfusion chamber and continually washed with the recording solution comprised of 90 mM NaCl, 1.0 mM KCl, 0.50 mM BaCl2, 0.005 mM EDTA, and 10 mM HEPES at a pH of 7.4 and a temperature of 23° C. Glass electrodes with a tip resistance of 0.5 to 2.5 MΩ were obtained from thin-walled glass capillary tubes. Voltage electrodes and current electrodes were filled with 0.3 M and 3.0 M KCl, respectively. The recordings were executed with the oocytes membrane potential holding at −40 m V by an OC-725 amplifier (Warner Instrument Co). All compounds were dissolved in dimethyl sulfoxide (DMSO) as 20 mM stock solutions and future diluted to reach the desired concentration (0.05-0.5% (vol/vol) DMSO) in recording solution comprised of 30 μM glycine and 100 μM glutamate. Each compound was recorded 3-7 times in the least 4 oocytes from at least 2 different Xenopus laevis.
(§3) To evaluate the inhibition of compounds, the concentration-response curve was fitted with the average two-electrode voltage-clamp recording results with the equation
(§4) [formula] • where IC50 is the concentration of compounds that inhibit half maximal of the current response and N is the Hill slope.

[2] = target: T2, recombinant rat GluN1/GluN2B (Rattus norvegicus, UniProt Q00960); assay: Two-electrode voltage-clamp recordings in Xenopus laevis oocytes, GluN2B; conditions: for I3 μM/Icontrol (mean ± SEM, %) GluN2B: 3 μM compound with 100 μM glutamate and 30 μM glycine, control set as 1
T2 construct: expressed in transfected cells; host or cells: Xenopus laevis oocytes injected with cRNA (GluN1:GluN2 ratio 1:2)
Method: as §1, §2, §3, §4

[3] = target: T3, recombinant rat GluN1/GluN2C (Rattus norvegicus, UniProt P35439+Q00961); assay: Two-electrode voltage-clamp recordings in Xenopus laevis oocytes, GluN2C
T3 construct: expressed in transfected cells; host or cells: Xenopus laevis oocytes injected with cRNA (GluN1:GluN2 ratio 1:2)
Method: as §1, §2, §3, §4

[4] = target: T4, recombinant rat GluN1/GluN2C (Rattus norvegicus, UniProt Q00961); assay: as above; conditions: for I3 μM/Icontrol (mean ± SEM, %) GluN2C: 3 μM compound with 100 μM glutamate and 30 μM glycine, control set as 1
T4 construct: expressed in transfected cells; host or cells: Xenopus laevis oocytes injected with cRNA (GluN1:GluN2 ratio 1:2)
Method: as §1, §2, §3, §4

[5] = target: T5, recombinant rat GluN1/GluN2D (Rattus norvegicus, UniProt P35439+Q62645); assay: Two-electrode voltage-clamp recordings in Xenopus laevis oocytes, GluN2D
T5 construct: expressed in transfected cells; host or cells: Xenopus laevis oocytes injected with cRNA (GluN1:GluN2 ratio 1:2)
Method: as §1, §2, §3, §4

[6] = target: T6, recombinant rat GluN1/GluN2D (Rattus norvegicus, UniProt Q62645); assay: as above; conditions: for I3 μM/Icontrol (mean ± SEM, %) GluN2D: 3 μM compound with 100 μM glutamate and 30 μM glycine, control set as 1
T6 construct: expressed in transfected cells; host or cells: Xenopus laevis oocytes injected with cRNA (GluN1:GluN2 ratio 1:2)
Method: as §1, §2, §3, §4

[7] = target: T7, recombinant rat GluN1/GluN2A (Rattus norvegicus, UniProt P35439+Q00959); assay: Two-electrode voltage-clamp recordings in Xenopus laevis oocytes, GluN2A; conditions: oocytes, 100 μM glutamate and 30 μM glycine
T7 construct: expressed in transfected cells; host or cells: Xenopus laevis oocytes injected with cRNA (GluN1:GluN2 ratio 1:2)
Method: as §1, §2, §3, §4

[8] = target: T8, recombinant rat GluN1/GluN2B (Rattus norvegicus, UniProt P35439+Q00960); assay: Two-electrode voltage-clamp recordings in Xenopus laevis oocytes, GluN2B; conditions: oocytes, 100 μM glutamate and 30 μM glycine
T8 construct: expressed in transfected cells; host or cells: Xenopus laevis oocytes injected with cRNA (GluN1:GluN2 ratio 1:2)
Method: as §1, §2, §3, §4

[9] = oocytes, 100 μM glutamate and 30 μM glycine
[10] = oocytes, 100 μM glutamate and 30 μM glycine, read-out: GluN2C IC50
[11] = oocytes, 100 μM glutamate and 30 μM glycine, read-out: GluN2D IC50
[12] = read-out: IC50 at GluN2D-containing receptors
[13] = mean IC50 with bottom and top 95% confidence interval, read-out: Avg. GluN2C IC50 (95% CI)
[14] = mean IC50 with bottom and top 95% confidence interval, read-out: Avg. GluN2D IC50 (95% CI)

T3 sequence (Q00961 20-1237, other chains not shown): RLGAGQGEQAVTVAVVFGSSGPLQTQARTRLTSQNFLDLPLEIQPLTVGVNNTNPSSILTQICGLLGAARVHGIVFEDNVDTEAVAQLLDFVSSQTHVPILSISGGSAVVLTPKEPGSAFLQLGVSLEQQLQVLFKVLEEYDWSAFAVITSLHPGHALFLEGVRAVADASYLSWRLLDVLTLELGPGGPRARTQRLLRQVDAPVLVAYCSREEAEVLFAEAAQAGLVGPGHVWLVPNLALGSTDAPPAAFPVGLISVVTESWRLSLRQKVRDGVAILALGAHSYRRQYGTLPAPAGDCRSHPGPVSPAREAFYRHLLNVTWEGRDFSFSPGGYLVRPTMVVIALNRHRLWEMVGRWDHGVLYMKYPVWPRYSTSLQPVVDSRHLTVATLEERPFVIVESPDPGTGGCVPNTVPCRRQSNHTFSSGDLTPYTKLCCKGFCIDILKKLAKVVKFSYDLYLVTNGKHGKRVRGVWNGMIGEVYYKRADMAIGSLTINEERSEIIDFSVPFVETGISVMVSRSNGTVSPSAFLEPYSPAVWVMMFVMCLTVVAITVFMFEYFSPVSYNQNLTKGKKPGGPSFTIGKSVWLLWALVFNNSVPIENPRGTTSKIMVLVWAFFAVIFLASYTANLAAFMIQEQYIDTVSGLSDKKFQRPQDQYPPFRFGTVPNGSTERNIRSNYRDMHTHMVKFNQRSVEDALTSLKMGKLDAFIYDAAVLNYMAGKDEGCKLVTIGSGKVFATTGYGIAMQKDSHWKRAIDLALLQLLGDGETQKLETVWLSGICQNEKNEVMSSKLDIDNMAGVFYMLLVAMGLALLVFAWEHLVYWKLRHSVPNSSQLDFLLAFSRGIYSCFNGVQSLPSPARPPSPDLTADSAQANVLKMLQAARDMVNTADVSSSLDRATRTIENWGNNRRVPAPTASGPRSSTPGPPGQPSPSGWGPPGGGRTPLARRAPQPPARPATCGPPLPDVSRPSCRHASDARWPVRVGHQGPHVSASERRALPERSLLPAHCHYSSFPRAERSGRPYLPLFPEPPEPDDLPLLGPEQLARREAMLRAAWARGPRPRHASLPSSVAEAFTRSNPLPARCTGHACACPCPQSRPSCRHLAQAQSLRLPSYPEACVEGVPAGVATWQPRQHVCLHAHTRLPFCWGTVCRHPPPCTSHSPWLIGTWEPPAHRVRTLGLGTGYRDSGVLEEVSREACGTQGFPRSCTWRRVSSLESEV
T4 sequence (Q00961 20-1237, other chains not shown): as above
T6 sequence (Q62645 28-1323, other chains not shown): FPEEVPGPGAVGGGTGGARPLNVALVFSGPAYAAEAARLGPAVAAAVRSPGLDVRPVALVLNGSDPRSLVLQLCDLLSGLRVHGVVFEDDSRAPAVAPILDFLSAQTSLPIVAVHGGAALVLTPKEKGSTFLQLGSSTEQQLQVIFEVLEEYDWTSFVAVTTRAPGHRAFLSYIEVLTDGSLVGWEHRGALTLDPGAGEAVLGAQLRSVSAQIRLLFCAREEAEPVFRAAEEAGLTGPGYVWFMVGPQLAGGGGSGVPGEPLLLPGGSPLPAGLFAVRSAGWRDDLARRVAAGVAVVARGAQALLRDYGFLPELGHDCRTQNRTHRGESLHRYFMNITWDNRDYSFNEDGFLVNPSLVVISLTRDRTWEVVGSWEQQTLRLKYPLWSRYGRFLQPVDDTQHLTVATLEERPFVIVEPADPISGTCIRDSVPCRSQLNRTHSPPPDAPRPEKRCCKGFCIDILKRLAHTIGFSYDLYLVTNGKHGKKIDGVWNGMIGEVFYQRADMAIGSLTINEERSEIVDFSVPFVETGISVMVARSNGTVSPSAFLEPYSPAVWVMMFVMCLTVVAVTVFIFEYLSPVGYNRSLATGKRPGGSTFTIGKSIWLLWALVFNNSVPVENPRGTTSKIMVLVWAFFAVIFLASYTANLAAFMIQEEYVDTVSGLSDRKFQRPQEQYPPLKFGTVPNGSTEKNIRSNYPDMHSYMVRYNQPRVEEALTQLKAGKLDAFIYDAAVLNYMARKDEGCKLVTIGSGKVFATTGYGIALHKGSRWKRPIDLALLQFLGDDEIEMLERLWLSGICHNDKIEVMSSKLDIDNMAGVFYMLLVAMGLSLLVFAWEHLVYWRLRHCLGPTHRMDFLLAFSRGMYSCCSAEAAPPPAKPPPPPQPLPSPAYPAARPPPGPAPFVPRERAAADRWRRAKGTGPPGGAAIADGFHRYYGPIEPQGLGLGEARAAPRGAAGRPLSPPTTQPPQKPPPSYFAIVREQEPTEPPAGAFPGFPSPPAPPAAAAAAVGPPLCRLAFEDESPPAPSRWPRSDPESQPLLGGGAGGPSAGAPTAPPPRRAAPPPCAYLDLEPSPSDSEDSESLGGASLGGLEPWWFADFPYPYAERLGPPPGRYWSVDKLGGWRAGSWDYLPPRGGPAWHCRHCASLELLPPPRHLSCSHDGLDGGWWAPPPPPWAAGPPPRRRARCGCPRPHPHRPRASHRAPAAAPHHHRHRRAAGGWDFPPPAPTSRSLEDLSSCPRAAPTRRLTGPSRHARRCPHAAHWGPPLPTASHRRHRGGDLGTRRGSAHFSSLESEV
T5 sequence (Q62645 28-1323, other chains not shown): as above
T1 sequence (Q00959 23-1464, other chains not shown): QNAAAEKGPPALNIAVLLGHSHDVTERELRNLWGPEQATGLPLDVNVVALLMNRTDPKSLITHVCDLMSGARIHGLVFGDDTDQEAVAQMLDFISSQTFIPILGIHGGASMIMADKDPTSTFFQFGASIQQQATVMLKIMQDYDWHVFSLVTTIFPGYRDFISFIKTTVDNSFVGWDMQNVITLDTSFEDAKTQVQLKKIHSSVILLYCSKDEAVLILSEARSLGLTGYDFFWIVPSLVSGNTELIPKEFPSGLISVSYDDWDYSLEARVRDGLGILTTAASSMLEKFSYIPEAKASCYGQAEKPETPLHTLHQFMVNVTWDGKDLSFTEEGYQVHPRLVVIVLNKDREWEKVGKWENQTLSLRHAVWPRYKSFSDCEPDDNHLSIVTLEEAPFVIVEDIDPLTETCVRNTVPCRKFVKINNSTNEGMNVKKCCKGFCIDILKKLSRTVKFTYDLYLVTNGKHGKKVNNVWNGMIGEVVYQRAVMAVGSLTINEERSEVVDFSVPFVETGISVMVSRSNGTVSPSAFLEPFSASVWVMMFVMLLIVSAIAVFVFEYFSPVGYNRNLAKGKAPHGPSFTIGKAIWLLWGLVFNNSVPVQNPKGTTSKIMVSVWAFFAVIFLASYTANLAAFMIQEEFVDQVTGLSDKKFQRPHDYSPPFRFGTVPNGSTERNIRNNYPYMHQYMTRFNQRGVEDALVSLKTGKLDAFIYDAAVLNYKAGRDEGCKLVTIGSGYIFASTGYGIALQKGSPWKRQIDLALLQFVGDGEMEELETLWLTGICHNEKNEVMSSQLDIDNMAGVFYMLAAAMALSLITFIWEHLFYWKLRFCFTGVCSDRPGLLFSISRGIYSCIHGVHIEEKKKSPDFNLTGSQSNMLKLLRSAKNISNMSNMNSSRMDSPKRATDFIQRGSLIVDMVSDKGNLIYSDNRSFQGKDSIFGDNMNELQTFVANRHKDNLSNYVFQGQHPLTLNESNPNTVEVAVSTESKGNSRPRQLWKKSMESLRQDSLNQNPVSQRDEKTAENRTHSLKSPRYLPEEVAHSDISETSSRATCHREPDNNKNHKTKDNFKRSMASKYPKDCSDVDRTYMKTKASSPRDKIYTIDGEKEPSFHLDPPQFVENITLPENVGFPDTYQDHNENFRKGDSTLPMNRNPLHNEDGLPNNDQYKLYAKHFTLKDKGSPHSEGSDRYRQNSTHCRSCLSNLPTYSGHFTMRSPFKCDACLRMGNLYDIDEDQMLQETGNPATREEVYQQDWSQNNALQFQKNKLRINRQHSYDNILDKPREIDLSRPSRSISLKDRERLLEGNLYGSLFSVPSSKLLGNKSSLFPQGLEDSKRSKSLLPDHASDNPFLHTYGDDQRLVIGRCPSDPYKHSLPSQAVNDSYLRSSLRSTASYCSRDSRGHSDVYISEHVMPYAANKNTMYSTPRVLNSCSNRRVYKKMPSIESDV

SMILES | IC50 [3, 10] | IC50 [5, 11] | IC50 [8] | GluN2A IC50 [1] | also measured
O=C(O)CCC(=O)N1N=C(c2c(-c3ccc(Cl)cc3)c3ccccc3[nH]c2=O)CC1c1ccc(Cl)nc1 (stereo not shown) [997-92, 4-(3-(4-(4-chlorophenyl)-2-oxo-1,2-dihydroquinolin-3-yl)-5-(6-chloropyridin-3-yl)-4,5-dihydro-1H-pyrazol-1-yl)-4-oxobutanoic acid] | 8 µM | 8 µM | – | NE (NE indicates less than 50% inhibition at 30 μM.) | GluN2B IC50 [2, 9]: NE (NE indicates less than 50% inhibition at 30 μM.); GluN2C IC50 [4, 9]: weak activity; GluN2D IC50 [6, 9]: weak activity
O=C(O)CC(F)(F)C(=O)N1N=C(c2c(-c3ccc(F)cc3)c3cc(F)ccc3[nH]c2=O)CC1c1ccc(Cl)cc1 (stereo not shown) [997-102, 4-(5-(4-chlorophenyl)-3-(6-fluoro-4-(4-fluorophenyl)-2-oxo-1,2-dihydroquinolin-3-yl)-4,5-dihydro-1H-pyrazol-1-yl)-3,3-difluoro-4-oxobutanoic acid] | 1 µM | – | 7.3 µM | – | IC50 [7]: 5.9 µM; IC50 [5, 12]: 0.4 µM
O=C(O)CC(F)(F)C(=O)N1N=C(c2c(-c3ccc(Cl)cc3)c3ccccc3[nH]c2=O)C[C@@H]1c1ccc(Cl)cc1 [(+)-997-74] | 3.4 µM | 3.9 µM | – | – | I3 μM/Icontrol (mean ± SEM, %) GluN2A [1]: 95 ± 0.47%; I3 μM/Icontrol (mean ± SEM, %) GluN2B [2]: 87 ± 1.4%; IC50 [3, 13]: 3.1 µM; I3 μM/Icontrol (mean ± SEM, %) GluN2C [4]: 56 ± 3.8%; IC50 [5, 14]: 2.24 µM; I3 μM/Icontrol (mean ± SEM, %) GluN2D [6]: 55 ± 2.7%

Second part, led by results:

IC50 [3, 10] | IC50 [5, 11] | IC50 [8] | SMILES | GluN2A IC50 [1] | also measured
12.1 µM | 7.41 µM | 23.1 µM | O=C(O)CC(F)(F)C(=O)N1N=C(c2ccccc2-c2ccc(Cl)cc2)CC1c1ccc(F)cc1 (stereo not shown) [997-116, 4-(3-(4′-chloro-[1,1′-biphenyl]-2-yl)-5-(4-fluorophenyl)-4,5-dihydro-1H-pyrazol-1-yl)-3,3-difluoro-4-oxobutanoic acid] | NE (NE indicates less than 50% inhibition at 30 μM.) | 2B IC50 / 2D IC50 ([6]; ratio of IC50 values): 3
7.34 µM | 4.67 µM | 15.6 µM | O=C(O)CC(F)(F)C(=O)N1N=C(c2ccccc2-c2cc(Cl)cc(Cl)c2)CC1c1ccc(Cl)cc1 (stereo not shown) [997-123, 4-(5-(4-chlorophenyl)-3-(3′,5′-dichloro-[1,1′-biphenyl]-2-yl)-4,5-dihydro-1H-pyrazol-1-yl)-3,3-difluoro-4-oxobutanoic acid] | NE (NE indicates less than 50% inhibition at 30 μM.) | –
3.63 µM | 3.57 µM | 14.8 µM | O=C(O)CC(F)(F)C(=O)N1N=C(c2ccccc2-c2ccc(C(F)(F)F)cc2)CC1c1ccc(Cl)cc1 (stereo not shown) [997-124, 4-(5-(4-chlorophenyl)-3-(4′-(trifluoromethyl)-[1,1′-biphenyl]-2-yl)-4,5-dihydro-1H-pyrazol-1-yl)-3,3-difluoro-4-oxobutanoic acid] | NE (NE indicates less than 50% inhibition at 30 μM.) | –
0.094 µM | – | – | O=C(O)CC(F)(F)C(=O)N1N=C(c2c(-c3ccc(Cl)cc3)c3ccccc3[nH]c2=O)C[C@H]1c1ccc(Cl)cc1 [(−)-997-74] | – | I3 μM/Icontrol (mean ± SEM, %) GluN2A [1]: 67 ± 3.9%; I3 μM/Icontrol (mean ± SEM, %) GluN2B [2]: 73 ± 4.8%; IC50 [3, 13]: 0.11 µM; I3 μM/Icontrol (mean ± SEM, %) GluN2C [4]: 9.3 ± 1.8%; IC50 [5, 14]: 0.055 µM; IC50 [5, 12]: 0.046 µM; I3 μM/Icontrol (mean ± SEM, %) GluN2D [6]: 3.5 ± 1.0%; fold more potent than the (+)-enantiomer at GluN2D ([6]; (−)- versus (+)-enantiomer): 85 fold

— patent publication US12391664B2, “GluN2C/D subunit selective antagonists of the N-methyl-D-aspartate receptor” (Emory University, priority 2018, dated 2025)
